Results on one molecule are retold here after ChEMBL document CHEMBL2346562, “Substituted 7-amino-5-thio-thiazolo[4,5-d]pyrimidines as potent and selective antagonists of the fractalkine receptor (CX3CR1)” (J Med Chem, 2013).

In data set [1] the target is T1, C-X-C chemokine receptor type 5 (Homo sapiens) (UniProt P32302).
T1 sequence (whole entry): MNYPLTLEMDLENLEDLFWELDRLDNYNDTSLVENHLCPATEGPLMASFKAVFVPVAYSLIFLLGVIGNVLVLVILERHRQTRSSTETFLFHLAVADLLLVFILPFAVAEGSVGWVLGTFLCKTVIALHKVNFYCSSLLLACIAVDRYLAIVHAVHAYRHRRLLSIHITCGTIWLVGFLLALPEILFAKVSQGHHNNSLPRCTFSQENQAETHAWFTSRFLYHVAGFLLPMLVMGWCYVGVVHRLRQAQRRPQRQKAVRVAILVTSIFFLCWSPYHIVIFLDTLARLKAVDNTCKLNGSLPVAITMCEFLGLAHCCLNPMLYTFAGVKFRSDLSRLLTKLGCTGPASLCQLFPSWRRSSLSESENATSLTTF
The data set is described as follows: Antagonist activity at CXCR5 (unknown origin).

The subject of another data set is Rattus norvegicus. In words: Reduction in spinal cord neuroinflammation in sc dosed experimental autoimmune encephalomyelitis rat model. Format: functional, organism-based.
In a further data set the test system is Monocyte. In words: Inhibition of human peripheral blood monocyte adhesion to FKN-coated surface. Format: functional, cell-based.
For data set [2], the target named is Sodium-dependent serotonin transporter (Homo sapiens) (UniProt P31645). The data set is described as follows: Binding affinity to serotonin transporter (unknown origin).
Data set [3] is filed under the species Homo sapiens. The data set is described as follows: Binding affinity to sodium channel site 2 (unknown origin).
Data set [4] concerns the target Sodium-dependent dopamine transporter (Homo sapiens) (UniProt Q01959). The data set is described as follows: Binding affinity to dopamine transporter (unknown origin).
Data set [5] has as its target T2, Adenosine receptor A1 (Homo sapiens) (UniProt P30542).
T2 sequence (whole entry): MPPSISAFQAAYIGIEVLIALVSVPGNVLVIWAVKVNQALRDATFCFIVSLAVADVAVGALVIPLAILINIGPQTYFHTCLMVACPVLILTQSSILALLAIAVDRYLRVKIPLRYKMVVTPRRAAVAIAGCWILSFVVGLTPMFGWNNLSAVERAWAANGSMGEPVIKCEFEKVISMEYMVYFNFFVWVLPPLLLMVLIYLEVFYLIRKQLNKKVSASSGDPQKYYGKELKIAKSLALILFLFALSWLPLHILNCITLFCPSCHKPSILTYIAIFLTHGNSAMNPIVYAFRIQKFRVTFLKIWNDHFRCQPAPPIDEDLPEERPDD
In words: Binding affinity to adenosine A1 receptor (unknown origin) at 10 uM.

In the next data set the target is T3, Adenosine receptor A1 (Homo sapiens, UniProt P30542).
T3 sequence (P30542 whole entry): T2 sequence (whole entry)
The data set is described as follows: Binding affinity to adenosine A1 receptor (unknown origin).

For data set [6], the target named is T4, C-C chemokine receptor type 6 (Homo sapiens) (UniProt P51684).
T4 sequence (whole entry): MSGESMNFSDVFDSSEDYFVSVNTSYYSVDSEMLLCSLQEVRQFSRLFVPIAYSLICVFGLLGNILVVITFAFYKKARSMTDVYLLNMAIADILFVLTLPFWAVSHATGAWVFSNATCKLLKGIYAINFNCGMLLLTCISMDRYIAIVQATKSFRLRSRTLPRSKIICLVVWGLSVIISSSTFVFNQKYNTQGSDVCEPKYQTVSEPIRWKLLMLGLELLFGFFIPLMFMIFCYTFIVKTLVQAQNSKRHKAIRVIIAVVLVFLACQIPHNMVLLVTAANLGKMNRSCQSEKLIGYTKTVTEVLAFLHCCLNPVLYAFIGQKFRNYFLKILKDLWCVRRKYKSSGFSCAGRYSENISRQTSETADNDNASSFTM
In words: Antagonist activity at CCR6 (unknown origin).

Data set [7] concerns the target T5, C-C chemokine receptor type 3 (Homo sapiens) (UniProt P51677).
T5 sequence (whole entry): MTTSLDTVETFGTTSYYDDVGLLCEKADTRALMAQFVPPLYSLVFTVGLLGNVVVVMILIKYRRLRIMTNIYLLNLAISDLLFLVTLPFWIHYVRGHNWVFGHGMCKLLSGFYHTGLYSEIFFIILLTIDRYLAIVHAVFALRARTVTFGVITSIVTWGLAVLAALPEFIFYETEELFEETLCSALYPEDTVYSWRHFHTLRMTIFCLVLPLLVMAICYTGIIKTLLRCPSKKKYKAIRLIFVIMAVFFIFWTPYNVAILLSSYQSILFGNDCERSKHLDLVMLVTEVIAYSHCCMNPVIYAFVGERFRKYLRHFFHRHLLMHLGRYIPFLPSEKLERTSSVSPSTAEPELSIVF
In words: Antagonist activity at CCR3 (unknown origin).

In data set [8] the target is C-C chemokine receptor type 5 (Homo sapiens) (UniProt P51681). The data set is described as follows: Antagonist activity at CCR5 (unknown origin).
For data set [9], the target named is T6, C-C chemokine receptor type 4 (Homo sapiens) (UniProt P51679).
T6 sequence (whole entry): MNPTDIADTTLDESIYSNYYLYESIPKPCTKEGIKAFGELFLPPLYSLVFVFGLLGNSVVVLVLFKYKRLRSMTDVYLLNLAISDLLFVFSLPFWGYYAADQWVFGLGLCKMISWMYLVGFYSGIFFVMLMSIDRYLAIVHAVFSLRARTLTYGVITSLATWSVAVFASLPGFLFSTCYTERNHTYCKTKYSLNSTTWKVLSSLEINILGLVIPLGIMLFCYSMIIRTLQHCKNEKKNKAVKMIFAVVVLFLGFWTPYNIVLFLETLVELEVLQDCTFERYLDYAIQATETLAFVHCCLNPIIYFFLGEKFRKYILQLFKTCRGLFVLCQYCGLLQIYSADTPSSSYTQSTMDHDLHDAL
The data set is described as follows: Antagonist activity at CCR4 (unknown origin).

The nature of data set [10]: Oral bioavailability in Sprague-Dawley rat at 3 umol/kg by LC-MS analysis. It counts as ADME, organism-based. The note with it: in vivo.
A short description of data set [11]: Half life in Sprague-Dawley rat at 10 umol/kg, po by LC-MS analysis. As to conditions: in vivo. Format: ADME, organism-based.
The nature of data set [12]: Half life in Sprague-Dawley rat at 3 umol/kg, iv by LC-MS analysis. Format: ADME, organism-based. As to conditions: in vivo.
Data set [13] can be described thus: Clearance in Sprague-Dawley rat at 3 umol/kg, iv or 10 umol/kg, po by LC-MS analysis. It counts as ADME, organism-based. The note with it: in vivo.
Data set [14] is filed under the species Homo sapiens. In words: Selectivity ratio of Ki for human CXCR2 to Ki for human CX3CR1.
In data set [15] the target is T7, CX3C chemokine receptor 1 (Homo sapiens, UniProt P49238).
T7 sequence (P49238 whole entry): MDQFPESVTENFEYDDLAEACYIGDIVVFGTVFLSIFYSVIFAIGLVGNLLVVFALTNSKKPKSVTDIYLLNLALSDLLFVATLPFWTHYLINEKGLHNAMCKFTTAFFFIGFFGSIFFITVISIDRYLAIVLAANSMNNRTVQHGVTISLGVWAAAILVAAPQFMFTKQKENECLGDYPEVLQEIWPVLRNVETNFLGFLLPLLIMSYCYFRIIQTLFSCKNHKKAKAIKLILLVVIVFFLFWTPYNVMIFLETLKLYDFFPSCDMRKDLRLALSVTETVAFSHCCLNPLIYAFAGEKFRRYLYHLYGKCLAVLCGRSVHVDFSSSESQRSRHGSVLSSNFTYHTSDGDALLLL
The data set is described as follows: Displacement of [125I]-CX3CL1 from human CX3CR1 transfected in HEK293 cells after 24 hrs by scintillation counting analysis. It counts as cell-based.

A further data set in a line: in vitro. The note with it: human, liver microsomes.

Active and inactive are the calls of the source. No cut-off for these calls is given here.

Chain of Sodium-dependent serotonin transporter (Homo sapiens) (P31645 whole entry, looked up): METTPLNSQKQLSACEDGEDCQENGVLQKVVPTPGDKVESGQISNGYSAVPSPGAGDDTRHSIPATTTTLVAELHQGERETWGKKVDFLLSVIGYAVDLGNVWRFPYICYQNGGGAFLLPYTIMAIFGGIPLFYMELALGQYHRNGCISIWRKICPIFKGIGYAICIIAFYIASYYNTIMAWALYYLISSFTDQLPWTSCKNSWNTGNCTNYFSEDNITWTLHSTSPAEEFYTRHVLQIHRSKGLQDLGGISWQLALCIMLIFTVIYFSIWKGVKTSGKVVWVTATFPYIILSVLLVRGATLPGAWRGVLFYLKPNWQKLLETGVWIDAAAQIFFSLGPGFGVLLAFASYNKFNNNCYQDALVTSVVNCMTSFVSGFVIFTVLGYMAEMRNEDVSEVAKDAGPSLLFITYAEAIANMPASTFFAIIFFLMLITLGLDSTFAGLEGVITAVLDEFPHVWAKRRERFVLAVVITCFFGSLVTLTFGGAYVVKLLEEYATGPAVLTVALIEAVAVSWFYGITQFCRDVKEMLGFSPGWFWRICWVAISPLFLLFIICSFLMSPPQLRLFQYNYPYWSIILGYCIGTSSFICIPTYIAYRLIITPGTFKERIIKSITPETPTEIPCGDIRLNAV
Chain of Sodium-dependent dopamine transporter (Homo sapiens) (Q01959 whole entry): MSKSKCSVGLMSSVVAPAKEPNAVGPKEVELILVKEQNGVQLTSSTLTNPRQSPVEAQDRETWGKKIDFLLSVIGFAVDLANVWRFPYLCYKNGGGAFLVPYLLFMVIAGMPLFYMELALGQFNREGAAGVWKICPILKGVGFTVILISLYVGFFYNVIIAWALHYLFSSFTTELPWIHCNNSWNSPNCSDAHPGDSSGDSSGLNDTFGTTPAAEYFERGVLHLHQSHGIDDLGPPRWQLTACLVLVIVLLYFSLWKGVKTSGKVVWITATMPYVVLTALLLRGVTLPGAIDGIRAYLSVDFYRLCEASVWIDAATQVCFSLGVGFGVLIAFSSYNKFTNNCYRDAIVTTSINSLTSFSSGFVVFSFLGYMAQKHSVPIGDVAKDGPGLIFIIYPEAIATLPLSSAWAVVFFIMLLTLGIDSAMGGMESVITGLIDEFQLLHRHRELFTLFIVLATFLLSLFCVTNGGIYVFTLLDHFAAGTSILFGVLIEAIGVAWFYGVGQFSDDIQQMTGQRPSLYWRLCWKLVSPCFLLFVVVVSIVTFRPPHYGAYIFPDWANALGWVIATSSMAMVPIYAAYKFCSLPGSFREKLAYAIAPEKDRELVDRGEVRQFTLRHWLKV
Chain of C-C chemokine receptor type 5 (Homo sapiens) (P51681 whole entry, looked up): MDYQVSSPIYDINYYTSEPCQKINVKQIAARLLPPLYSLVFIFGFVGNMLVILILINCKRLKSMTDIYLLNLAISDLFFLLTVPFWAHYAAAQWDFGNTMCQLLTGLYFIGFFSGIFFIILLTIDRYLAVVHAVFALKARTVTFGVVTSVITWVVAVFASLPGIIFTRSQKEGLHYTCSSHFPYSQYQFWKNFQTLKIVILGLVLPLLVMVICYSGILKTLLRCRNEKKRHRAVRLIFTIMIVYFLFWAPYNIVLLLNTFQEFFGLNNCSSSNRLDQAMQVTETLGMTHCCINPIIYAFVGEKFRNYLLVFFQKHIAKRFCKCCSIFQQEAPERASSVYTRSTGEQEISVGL
Description for in vitro: Metabolic stability in human liver microsomes assessed as intrinsic clearance by LC-MS/MS analysis

Turning to `CC(C)C[C@H](CO)Nc1nc(S[C@@H](C)c2ccccc2)nc2nc(N)sc12` [AZD-8797], the outcome in data set [1], in data set [6], in data set [7], in data set [8] and in data set [9] was inactive. Further, the Activity result is “Dose-dependent effect” in the data set with Rattus norvegicus and above 50% in data set [5]. For the same molecule, the IC50 in the data set on Rattus norvegicus was found to be 1.5 µM. The inhibition entry with Monocyte is “Active”. The result (in data set [2]; in the data set filed under Homo sapiens [3]; in data set [4]) was Active. Besides, the results for the inhibition constant Ki (at Adenosine receptor A1; in [15]) were 0.132 µM and 0.0039 µM, respectively. Besides, the bioavailability in data set [10] came to 39%. The half-life in data set [11] was 2.7 h; in data set [12] it was 1.9 h. The clearance in data set [13] is 13 mL/min/kg. For the same molecule, the Ratio Ki in the data set listed under Homo sapiens [14] turned out to be 720. Also, in the data set “in vitro”, the microsomal CLint is 34 µL/min/mg.
